According to paper PMC11861906, “Structural basis for lipid-mediated activation of G protein-coupled receptor GPR55” (Nature Communications, 2025):

Biological target: thromboxane A2 receptor (TBXA2R) (Gα13) (Homo sapiens, UniProt P21731)
Assay: BRET² G protein dissociation assay, TBXA2R with Gα13
Assay type: cell-based
Conditions: for Mean (plotted), G protein dissociation BRET² signal: TBXA2R-G13, Fig. 5c source data
Experimental: G protein dissociation assays were performed according to the original protocols of the TRUPATH BRET² assay[47],[87] but with subtle modifications as previously described[61],[88],[89]. All reagents and cells were obtained from Thermo Fisher Scientific unless indicated otherwise. The coding sequences for the G protein biosensors[47] (Gα12-Rluc8, Gα13-Rluc8, wt Gβ3, and Gγ9-GFP), the wt GPR55, the construct used for cryo-EM (with GFP bearing a G67A mutation to disrupt fluorescence properties[48] for BRET² assays), GPR55 binding pocket mutants (G152^4.56F, G152^4.56W, N171^ECL2Q, N171^ECL2A, T176^5.33A, R253^6.62A), and the wt TBXA2R were codon-optimized for Homo sapiens, gene-synthesized, and sub-cloned into pcDNA^TM3.1(+) between NheI and HindIII restriction sites by GeneArt (Thermo Fisher Scientific). […] Freshly grown cells were washed with Dulbecco’s Balanced Salt Solution (DPBS, cat. #14200075) and detached using trypsin-ethylenediaminetetraacetic acid (trypsin-EDTA) (cat. #25300-062). Then, the cells were reconstituted to 500,000 cells per mL with fresh medium, and 1,000,000 cells were seeded into each well of a 6-well plate. After 3 h incubation at 37 °C and 5% CO2, adherent cells were transfected with 600 ng DNA (1:1:1:1 ratio of plasmid DNA for GPR55, wt Gβ3, Gγ9-GFP, and Gα12-Rluc8 or Gα13-Rluc8). Plasmid DNA was mixed with 1.5 µL Lipofectamine^TM 2000 (cat. #11668027) in Opti-MEM^TM medium (cat. #31985062) and incubated for 20 min. Then, the mixture was added to each well of the 6-well plate following 24 h incubation at 37 °C and 5% CO2. Transfected cells were washed with DPBS, detached using EDTA (Versene, cat. #15040066), and reconstituted into fresh medium at 500,000 cells mL^−1. From this suspension, 50,000 cells were seeded into each well of a white-bottom 96-well plate (Nunc^TM MicroWell^TM 96 wells, cat. #136101) following overnight incubation at 37 °C and 5% CO2. Then, the adherent cells were washed with assay medium [Hank’s balanced salt solution (HBSS, cat. #14065056) plus 20 mM HEPES pH 7.4 (cat. #15630056)] and finally reconstituted into 50 µL of the same medium. […] Methoxy e-Coelenterazine was used as luciferase substrate (Prolume Purple, NanoLight Technology, cat. #369), reconstituted at 1 mM in methanol and diluted to 37.5 µM with assay buffer (7.5 µM final assay concentration). The assay was started by the addition of 20 µL luciferase substrate to each well of the assay plate using a Multidrop^TM Combi reagent dispenser (Thermo Fisher Scientific), followed by 5 min incubation at room temperature. Then, 30 µL of agonist dilutions or DMSO control was added (final DMSO concentration 1.5%), followed by an additional 5 min incubation at room temperature.

Sequence of thromboxane A2 receptor (TBXA2R) (Gα13) (P21731 whole entry, species assumed): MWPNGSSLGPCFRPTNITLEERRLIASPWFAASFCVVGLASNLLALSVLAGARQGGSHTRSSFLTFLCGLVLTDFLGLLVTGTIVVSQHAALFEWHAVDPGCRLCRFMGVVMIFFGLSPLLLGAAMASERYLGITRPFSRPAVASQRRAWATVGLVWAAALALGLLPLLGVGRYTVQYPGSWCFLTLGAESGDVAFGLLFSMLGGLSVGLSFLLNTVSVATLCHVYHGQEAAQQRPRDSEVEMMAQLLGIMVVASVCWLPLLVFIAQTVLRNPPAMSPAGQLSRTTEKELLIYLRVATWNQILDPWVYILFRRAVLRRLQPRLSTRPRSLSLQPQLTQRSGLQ
Sequence of thromboxane A2 receptor (TBXA2R) (Gα13) (Q14344 whole entry partner, species assumed): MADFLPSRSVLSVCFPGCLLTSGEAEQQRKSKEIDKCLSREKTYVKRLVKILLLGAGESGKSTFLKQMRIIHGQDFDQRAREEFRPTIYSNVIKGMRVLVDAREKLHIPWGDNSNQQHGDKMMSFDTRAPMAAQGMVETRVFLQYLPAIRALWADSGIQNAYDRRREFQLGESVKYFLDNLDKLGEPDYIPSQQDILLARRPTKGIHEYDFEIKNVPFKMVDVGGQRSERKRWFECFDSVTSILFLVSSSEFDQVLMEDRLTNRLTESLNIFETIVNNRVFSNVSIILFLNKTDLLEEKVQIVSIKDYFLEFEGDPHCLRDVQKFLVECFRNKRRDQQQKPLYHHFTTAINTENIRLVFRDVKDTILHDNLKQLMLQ
Sequence of thromboxane A2 receptor (TBXA2R) (Gα13) (P16520 whole entry partner, species assumed): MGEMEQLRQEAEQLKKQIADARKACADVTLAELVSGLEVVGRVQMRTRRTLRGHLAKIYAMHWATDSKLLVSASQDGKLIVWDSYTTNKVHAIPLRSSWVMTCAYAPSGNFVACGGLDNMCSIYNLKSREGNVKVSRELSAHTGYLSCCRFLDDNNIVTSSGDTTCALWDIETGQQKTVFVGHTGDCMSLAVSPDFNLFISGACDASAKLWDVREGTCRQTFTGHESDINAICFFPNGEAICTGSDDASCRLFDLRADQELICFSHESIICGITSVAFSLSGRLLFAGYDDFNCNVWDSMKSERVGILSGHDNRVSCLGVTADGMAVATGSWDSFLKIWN
Sequence of thromboxane A2 receptor (TBXA2R) (Gα13) (O14610 1-66 partner limits assumed, species assumed): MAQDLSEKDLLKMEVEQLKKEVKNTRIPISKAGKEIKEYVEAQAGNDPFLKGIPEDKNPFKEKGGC

| SMILES | Mean (plotted), G protein dissociation BRET² signal (concentration 300 pM) | Mean (plotted), G protein dissociation BRET² signal (concentration 1e-9 M) | Mean (plotted), G protein dissociation BRET² signal (concentration 3e-9 M) | Mean (plotted), G protein dissociation BRET² signal (concentration 1e-8 M) | Mean (plotted), G protein dissociation BRET² signal (concentration 3e-8 M) | Mean (plotted), G protein dissociation BRET² signal (concentration 1e-7 M) | Mean (plotted), G protein dissociation BRET² signal (concentration 3e-7 M) | Mean (plotted), G protein dissociation BRET² signal (concentration 1e-6 M) | Mean (plotted), G protein dissociation BRET² signal (concentration 3e-6 M) | Mean (plotted), G protein dissociation BRET² signal (concentration 1e-5 M) | Mean (plotted), G protein dissociation BRET² signal (concentration 3e-5 M) | Efficacy ± SEM (%) (TBXA2, Gα13) | pEC50 ± SEM (TBXA2, Gα13) | EC50 (TBXA2R via Gα13, read-out: potency (EC50)) [pM] | Mean (plotted), G protein dissociation BRET² signal (concentration 10 pM) | Mean (plotted), G protein dissociation BRET² signal (concentration 30 pM) |
| --- | --- | --- | --- | --- | --- | --- | --- | --- | --- | --- | --- | --- | --- | --- | --- | --- |
| Cc1cccc(N2CCN(C(=O)c3cc(S(=O)(=O)N(C)C)ccc3N3CCCC3)CC2)c1C [ML184, 3-[[4-(2,3-dimethylphenyl)-1-piperazinyl]carbonyl]-N,N-dimethyl-4-(1-pyrrolidinyl)benzenesulfonamide] | -0.002664 | -0.001942 | -0.0001851 | 0.008857 | 0.0122 | 0.01041 | 0.01174 | 0.01712 | 0.01801 | 0.01748 | 0.01231 | – | – | – | – | – |
| CCCCC[C@H](O)/C=C/[C@@H]1[C@@H](C/C=C\CCCC(=O)O)[C@H]2CO[C@@H]1C2 [U-46619] | -0.03967 | -0.07222 | -0.103 | – | -0.1326 | – | -0.1394 | -0.1409 | – | – | – | 100 ± 2 | 9.03 ± 0.11 | 930 | 0.004083 | 0.00585 |
